Read-outs that look alike come from different tables or passages of the source. Values belong to the compound of their own block, whether it stands above or below them.
How the values were obtained:
[1] = test system: IFNα-induced pSTAT5 in human whole blood (CD3 positive population); assay: IFNα-induced STAT phosphorylation in human whole blood; assay type: cell-based; conditions: 1 h compound incubation, 1000 U/mL IFNα A/D for 15 min, CD3+ gate, read-out: Human Whole blood IFNa pSTAT5 IC50
Description: After an hour long incubation with compound, human whole blood (drawn with ACD-A as anticoagulant) was stimulated with 1000 U/mL recombinant human IFNα A/D (R&D Systems 11200-2) for 15 min. The stimulation was stopped by adding Fix/Lyse buffer (BD 558049). Cells were stained with a CD3 FITC antibody (BD 555916), washed, and permeabilized on ice using Perm III buffer (BD 558050). Cells were then stained with an Alexa-Fluor 647 pSTAT5 (pY694) antibody (BD 612599) for 60 min prior to analysis on the iQue Plus. The amount of pSTAT5 expression was quantitated by median fluorescence intensity after gating on the CD3 positive population.

[2] = test system: Caco-2 cells; assay: Bidirectional permeability assay in Caco-2 cells; conditions: 3 μM, pH 7.4, 0.5% BSA, 2 hours at 37° C.; for Caco-2 AB: apical-to-basolateral Pc
[3] = test system: Caco-2 cells; conditions: human, Caco-2, 2 h, 3 μM, pH 7.4
[4] = in vitro; conditions: human, Caco-2, pH 7.4

SMILES: CNC(=O)c1cnc(N2CCN(C(C)C)C2=O)cc1Nc1nccc(-c2cnn(C)n2)c1OC [Example 2, 4-{[3-methoxy-4-(2-methyl-2H-1,2,3-triazol-4-yl)pyridin-2-yl]amino}-N-(^2H3)methyl-6-[2-oxo-3-(propan-2-yl)imidazolidin-1-yl]pyridine-3-carboxamide]
IC50 [1]: 26 nM

SMILES: [2H]C([2H])([2H])NC(=O)c1cnc(N2CCN(C(C)C)C2=O)cc1Nc1nccc(-c2cnn(C)n2)c1OC [Example 2, 4-{[3-methoxy-4-(2-methyl-2H-1,2,3-triazol-4-yl)pyridin-2-yl]amino}-N-(^2H3)methyl-6-[2-oxo-3-(propan-2-yl)imidazolidin-1-yl]pyridine-3-carboxamide]
Caco-2 efflux ratio [2]: 1.4
Caco-2 AB [2]: 233 nm/s

SMILES: CNC(=O)c1cnc(N2CCN(C(C)C)C2=O)cc1Nc1cccc(-c2cnn(C)n2)c1OC [Example 3, 4-{[2-methoxy-3-(2-methyl-2H-1,2,3-triazol-4-yl)phenyl]amino}-N-(^2H3)methyl-6-[2-oxo-3-(propan-2-yl)imidazolidin-1-yl]pyridine-3-carboxamide]
IC50 [1]: 77 nM

SMILES: [2H]C([2H])([2H])NC(=O)c1cnc(N2CCN(C(C)C)C2=O)cc1Nc1cccc(-c2cnn(C)n2)c1OC [Example 3, 4-{[2-methoxy-3-(2-methyl-2H-1,2,3-triazol-4-yl)phenyl]amino}-N-(^2H3)methyl-6-[2-oxo-3-(propan-2-yl)imidazolidin-1-yl]pyridine-3-carboxamide]
Caco-2 efflux ratio [2]: 0.7
Caco-2 AB [2]: 287 nm/s

IC50 [1]: 26 nM
SMILES: CNC(=O)c1nnc(N2CCN(C3CC3)C2=O)cc1Nc1nccc(-c2cnn(C)n2)c1OC [Example 4, 6-(3-cyclopropyl-2-oxoimidazolidin-1-yl)-4-{[3-methoxy-4-(2-methyl-2H-1,2,3-triazol-4-yl)pyridin-2-yl]amino}-N-(^2H3)methylpyridazine-3-carboxamide]

Caco-2 AB [3]: 576 nm/s
SMILES: [2H]C([2H])([2H])NC(=O)c1nnc(N2CCN(C3CC3)C2=O)cc1Nc1nccc(-c2cnn(C)n2)c1OC [Example 4, 6-(3-cyclopropyl-2-oxoimidazolidin-1-yl)-4-{[3-methoxy-4-(2-methyl-2H-1,2,3-triazol-4-yl)pyridin-2-yl]amino}-N-(^2H3)methylpyridazine-3-carboxamide]

IC50 [1]: 95 nM
SMILES: CNC(=O)c1nnc(N2CCN(C3CC3)C2=O)cc1Nc1cccc(-c2cnn(C)n2)c1OC [Example 5, 6-(3-cyclopropyl-2-oxoimidazolidin-1-yl)-4-{[2-methoxy-3-(2-methyl-2H-1,2,3-triazol-4-yl)phenyl]amino}-N-(^2H3)methylpyridazine-3-carboxamide]

Caco-2 AB [3]: 361 nm/s
SMILES: [2H]C([2H])([2H])NC(=O)c1nnc(N2CCN(C3CC3)C2=O)cc1Nc1cccc(-c2cnn(C)n2)c1OC [Example 5, 6-(3-cyclopropyl-2-oxoimidazolidin-1-yl)-4-{[2-methoxy-3-(2-methyl-2H-1,2,3-triazol-4-yl)phenyl]amino}-N-(^2H3)methylpyridazine-3-carboxamide]

SMILES: CNC(=O)c1cnc(N2CCN(C(F)(F)F)C2=O)cc1Nc1cccc(-c2cnn(C)n2)c1OC [Example 6, 4-{[2-methoxy-3-(2-methyl-2H-1,2,3-triazol-4-yl)phenyl]amino}-N-(^2H3)methyl-6-[2-oxo-3-(trifluoromethyl)imidazolidin-1-yl]pyridine-3-carboxamide]
IC50 [1]: 800 nM

SMILES: [2H]C([2H])([2H])NC(=O)c1cnc(N2CCN(C(F)(F)F)C2=O)cc1Nc1cccc(-c2cnn(C)n2)c1OC [Example 6, 4-{[2-methoxy-3-(2-methyl-2H-1,2,3-triazol-4-yl)phenyl]amino}-N-(^2H3)methyl-6-[2-oxo-3-(trifluoromethyl)imidazolidin-1-yl]pyridine-3-carboxamide]
Caco-2 efflux ratio [2]: 0.6
Caco-2 AB [2]: 118 nm/s

IC50 [1]: 47 nM
SMILES: CNC(=O)c1nnc(N2CCN(C3CCC3)C2=O)cc1Nc1nccc(-c2cnn(C)n2)c1OC [Example 7, 6-(3-cyclobutyl-2-oxoimidazolidin-1-yl)-4-{[3-methoxy-4-(2-methyl-2H-1,2,3-triazol-4-yl)pyridin-2-yl]amino}-N-(^2H3)methylpyridazine-3-carboxamide]

Caco-2 AB [3]: 139 nm/s
SMILES: [2H]C([2H])([2H])NC(=O)c1nnc(N2CCN(C3CCC3)C2=O)cc1Nc1nccc(-c2cnn(C)n2)c1OC [Example 7, 6-(3-cyclobutyl-2-oxoimidazolidin-1-yl)-4-{[3-methoxy-4-(2-methyl-2H-1,2,3-triazol-4-yl)pyridin-2-yl]amino}-N-(^2H3)methylpyridazine-3-carboxamide]

IC50 [1]: 383 nM
Papp A→B at 2 h, 3 μM [4]: 15.4 ×10⁻⁶ cm/s
efflux ratio at 2 h, 3 μM [4]: 0.3
SMILES: [2H]C([2H])([2H])NC(=O)c1nnc(N2CCN(C(C)C)C2=O)cc1Nc1nc(C)cc(-c2cnn(C)n2)c1OC [Example 8, 6-(3-isopropyl-2-oxoimidazolidin-1-yl)-4-((3-methoxy-6-methyl-4-(2-methyl-2H-1,2,3-triazol-4-yl)pyridin-2-yl)amino)-N-(methyl-d3)pyridazine-3-carboxamide]

IC50 [1]: 141 nM
Papp A→B at 2 h, 3 μM [4]: 13.7 ×10⁻⁶ cm/s
efflux ratio at 2 h, 3 μM [4]: 0.2
SMILES: [2H]C([2H])([2H])NC(=O)c1nnc(N2CCN(C3CC3)C2=O)cc1Nc1nc(C)cc(-c2cnn(C)n2)c1OC [Example 9, 6-(3-cyclopropyl-2-oxoimidazolidin-1-yl)-4-((3-methoxy-6-methyl-4-(2-methyl-2H-1,2,3-triazol-4-yl)pyridin-2-yl)amino)-N-(methyl-d3)pyridazine-3-carboxamide]

— patent US20260184690A1, “Substituted Heterocyclic Compounds” (Bristol-Myers Squibb Company, priority 2022, published 2026)
